# Measurements from patent US7151168B2, “Ecdysone receptors and methods for their use” (Pioneer Hi-Bred International, Inc., priority 1998, dated 2006).
# “And” between values parts separate entries of the source, which are not always exact repeats. Equal entries are not always repeated.
# Columns and labels:
# Format in all cases: cell-based, Ostrinia nubilalis
# [1] = test system: C1::LexA::ecdysone fusion protein (plasmid PHP10956; ligand-binding domain of the Ecdysone receptor)
# Excerpt: (§1) To examine the effect of the Ecdysone and USP receptors on promoter-driven expression, a transient transactivation assay was developed using a cell suspension culture derived from maize embryos. (See also, U.S. Pat. No. 5,886,244.) A reporter plasmid, designated PHP11545, was constructed in the pSP72 vector and contained 8 LexA operators, a minimal fragment of the CaMV-59 constitutive promoter, the Omega leader sequence, Adh intron 1, the coding sequence for firefly luciferase, and the PinII terminator sequences.
# (§2) Two DNA constructs encoding effector proteins were generated. A chimeric Ecdysone receptor construct designated PHP10956 was generated. PHP10956 contains the Nopaline synthase (NOS) promoter, the Omega leader sequence, Adh1 intron, and the potato protease inhibitor II (PinII) termination sequences cloned into a pUC vector. A fragment encoding a fusion between the maize C1 transactivation domain, the LexA DNA binding domain, and the ligand-binding domain of the Ecdysone receptor was cloned downstream of the intron.
# (§3) These constructs were introduced into embryogenic suspension cells by microprojectile bombardment as described by Unger et al. (1993) The Plant Cell 5:831–841. Plasmid DNA encoding effector and reporter sequences was mixed with 50 μl (15 mg/ml) of 1.0 μm tungsten microprojectiles. DNA was precipitated by addition of 50 μl 2.5 M CaCl2 and 20 μl 0.1M spermidine. Microprojectiles and precipitated DNA were centrifuged to a pellet and the supernatant was removed. The pellet was washed by sonication in the presence of 250 μl absolute ethanol, centrifuged and ethanol removed. Sixty μl of fresh absolute ethanol was added and this mixture sonicated to disperse the pellet. Ten μl aliquots of this microprojectile-DNA mixture were placed on each macrocarrier and bombarded into maize suspension cells using a helium-driven microprojectile gun, PDS-1000 (1100 psi rupture disk pressure). […]
# [2] = test system: chimeric Ecdysone receptor: VP16 activation domain, Gal4 DNA binding domain, ligand-binding domain of the Ecdysone receptor (PHP10513); test: Stable transactivation assay, GAL4-responsive luciferase reporter PHP1654, leaf punches of T0 maize plants, PHP10513; settings: 10 μM RH5992 in H2O, 16 hours, individual T0 plant, 20 μl of 200 μl extract
# Procedure: (§4) To further examine the effect of the Ecdysone receptors on promoter-driven expression, a stable transactivation assay was performed using a chimeric Ecdysone receptor. DNA constructs were generated for the expression of both effector and reporter DNA sequences.
# (§5) A reporter plasmid, designated PHP1654, was constructed in the pSP72 vector and contained 5 GAL4 responsive elements, a minimal CaMV-59 constitutive promoter, the Omega' leader sequence, Adh intron 1, the coding sequence for firefly Luciferase, and the PinII terminator sequences.
# The plasmid designated PHP10513 also contains the Nopaline synthase (NOS) promoter, the Omegá leader sequence, Adh1 intron, 355 promoter, PAT gene, and the potato protease inhibitor II (PinII) termination sequences cloned into a pUC vector. However, the fragment encoding the chimeric receptor immediately downstream of the intron, comprises a fusion between the VP16 activation domain, the Gal4 DNA binding domain, and the ligand-binding domain of the Ecdysone receptor.
# Immature embryos approximately 1.5 to 2.0 mm long from the Hi-II genotype (Armstrong and Phillips (1988) Crop Sci. 28:363–369) were bombarded with the PHP1654 reporter plasmid and either PHP10513 or PHP10512. As noted above, a selectable marker gene, PAT, was contained on PHP10513 and PHP10512. The PAT gene confers resistance to the herbicide Bialophos. (Wohlleben et al. (1988) Gene 70:25–37.)
# Embryos were bombarded using the protocols described in Tomes et al. (1994) Plant Cell, Tissue, and Organ culture, Fundamental Methods 197–213. Specifically, the Hi-II immature embryos were bombarded and cultured on selection medium as described by Songstad et al. 1993 Agronomy Abstracts 183. Plant regeneration from transgenic calli was performed according to the protocol of Armstrong and Phillips (1988) Crop Sci 28:363–369, except that bialaphos (3 mg/l) was added to each of the regeneration media. Plants were established in the greenhouse.
# The transactivation of the luciferase reporter sequence by a chimeric Ecdysone receptor was assayed using standard protocols. […]
# [3] = test system: chimeric Ecdysone receptor: maize C1 transactivation domain, Gal4 DNA binding domain, ligand-binding domain of the Ecdysone receptor (PHP10512); test: Stable transactivation assay, GAL4-responsive luciferase reporter PHP1654, leaf punches of T0 maize plants, PHP10512; settings: 10 μM RH5992 in H2O, 16 hours; plasmid PHP10512, event 78; individual T0 plant; 20 μl of 200 μl extract
# Procedure: as §4, §5
# Two DNA constructions encoding chimeric Ecdysone receptor proteins were generated. The chimeric Ecdysone receptor construct designated PHP10512 contains the Nopaline synthase (NOS) promoter, the Omegá leader sequence, Adh1 intron, 355 promoter, PAT gene and the potato protease inhibitor II (PinII) termination sequences cloned into a pUC vector. A fragment encoding a fusion between the maize C1 transactivation domain, the Gal4 DNA binding domain, and the ligand-binding domain of the Ecdysone receptor was cloned downstream of the intron.
# Immature embryos approximately 1.5 to 2.0 mm long from the Hi-II genotype (Armstrong and Phillips (1988) Crop Sci. 28:363–369) were bombarded with the PHP1654 reporter plasmid and either PHP10513 or PHP10512. As noted above, a selectable marker gene, PAT, was contained on PHP10513 and PHP10512. […]
# [4] = test system: USP receptor (plasmid PHP10967) and C1::LexA::ecdysone fusion protein (plasmid PHP10956); test: Transient transactivation assay, luciferase reporter PHP11545, maize embryogenic suspension cells, chimeric EcR plus USP (NosCLO/NosUSP)
# Excerpt: as §1, §2
# A DNA construction containing the USP coding sequences was generated and designated PHP10967. PHP10967 contains the Nos promoter, the Omega leader sequence, Adh1 intron, and the PinII terminator sequences cloned into the pUC vector. The nucleic acid sequence encoding the USP coding region was inserted downstream of the intron.
# as §3, with “pellet.” for “pellet. Ten μl aliquots of this microprojectile-DNA mixture were placed on each macrocarrier and bombarded into maize suspension cells using a helium-driven microprojectile gun, PDS-1000 (1100 psi rupture disk pressure).”
smiles,measurement,setting,value
"CCc1ccc(C(=O)NN(C(=O)c2cc(C)cc(C)c2)C(C)(C)C)cc1 [RH5992, 3,5-dimethylbenzoic acid 1—1 (1,1-dimethylethyl)-2(4-ethylbenzoyl)hydrazide]",Average Light Units (luciferase expression),"[1]; 10 μM RH5992, NosCLO only, effector dose 0.02 μg, 16 to 18 hours at 26° C., maize suspension cells",153613 Light Units
same,Fold Induction (luciferase),"[1]; 10 μM RH5992 vs no ligand, NosCLO only, 0.02 μg",8.4x
same,Transactivation of the LexA responsive luciferase reporter gene (in words),"[1]; in the presence of the RH5992 ligand, only C1::LexA::ecdysone fusion protein (PHP10956), no USP",resulted in the transactivation of the LexA responsive luciferase reporter gene
same,"RH5992 treated (Light Units), luciferase activity","[2]; plasmid PH10513, event 30",38093 Light Units and 26394 Light Units and 24632 Light Units and 33636 Light Units and 28213 Light Units and 22137 Light Units and 105341 Light Units and 44639 Light Units and 49279 Light Units and 83241 Light Units and 61320 Light Units and 130618 Light Units and 95166 Light Units and 35641 Light Units and 37955 Light Units and 38507 Light Units and 37855 Light Units and 42346 Light Units
same,"RH5992 treated (Light Units), luciferase activity","[2]; plasmid PHP10513, event 44",605147 Light Units and 528950 Light Units and 303021 Light Units and 573842 Light Units and 417072 Light Units and 511220 Light Units and 290095 Light Units
same,"RH5992 treated (Light Units), luciferase activity","[2]; plasmid PHP10513, event 117",90037 Light Units and 40005 Light Units and 149594 Light Units and 75379 Light Units and 49243 Light Units and 114913 Light Units and 57607 Light Units and 46075 Light Units
same,"RH5992 treated (Light Units), luciferase activity",[3],3771 Light Units and 1819 Light Units and 7742 Light Units and 1027 Light Units and 9742 Light Units and 2486 Light Units and 8494 Light Units and 3988 Light Units and 9265 Light Units and 6198 Light Units and 6293 Light Units and 1045 Light Units and 8354 Light Units and 4720 Light Units
same,Average Light Units (luciferase expression),"[4]; 10 μM RH5992, NosCLO/NosUSP, 0.02 μg each, 16 to 18 hours at 26° C., maize suspension cells",201808 Light Units
same,Fold Induction (luciferase),"[4]; 10 μM RH5992 vs no ligand, NosCLO/NosUSP, 0.02 μg each",53x
same,Transactivation of the LexA responsive luciferase reporter (PHP11545),"[4]; in the presence of the RH5992 ligand, USP (PHP10967) plus C1::LexA::ecdysone fusion (PHP10956)",53 fold
